Some test systems named below: 786-0 renal; CCRF-CEM leukemia; HCT-116 colon; HOP-62 NSCLC; HT29 colon; MALME-3M melanoma; NCI-H522 lung; OVCAR-3 ovarian; RPMI-8226 leukemia; SN12C renal; SW-620 colon; TK-10 renal.
Holding throughout (test): DTP human tumour cell line panel, 48 h

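Step 1: Grow cells in 96-well plates. Step 2: Expose to compound for 48 hours at 5 concentrations. Step 3: Interpolate endpoints linearly; if unreached, use highest concentration. The concentration for full growth arrest is given as TGI.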 Some results are limits rather than exact numbers.

In general, TGI refers to the concentration giving total growth inhibition. A higher TGI goes with less potent growth arrest. Turning to `CCOC(=O)c1ccc(N=C/C=C(\Nc2ccc(C(=O)OCC)cc2)c2ccc3ccccc3c2)cc1`, the TGI in the test with 786-0 renal is 64.1 µM; with CCRF-CEM leukemia, 46.5 µM; with HCT-116 colon, more than 100 µM; in the test with HOP-62 NSCLC, 95.8 µM; in the test on HT29 colon it was 49 µM; with MALME-3M melanoma, 43.6 µM. For the same molecule, the TGI in the test on NCI-H522 lung is more than 100 µM; in the test with OVCAR-3 ovarian, 83.5 µM; with RPMI-8226 leukemia, 52.1 µM; with SN12C renal it was 58.6 µM; with SW-620 colon, more than 100 µM; with TK-10 renal it was 53.4 µM.
With `CCCCCCc1cc(C=O)sc1-c1ccc(-c2sc(-c3ccc(-c4ccc(-c5cc(CCCCCC)c(-c6ccc(-c7sc(C=O)cc7CCCCCC)s6)s5)s4)s3)cc2CCCCCC)s1`, the TGI with 786-0 renal, in the test with CCRF-CEM leukemia, in the test on HCT-116 colon, in the test on HOP-62 NSCLC, in the test on HT29 colon and in the test on MALME-3M melanoma was more than 100 µM in each case. Moreover, the TGI in the test with NCI-H522 lung, with OVCAR-3 ovarian, with RPMI-8226 leukemia, in the test with SN12C renal, in the test with SW-620 colon and in the test on TK-10 renal was more than 100 µM each time.
Take `CCOC(=O)[C@H]1Nc2ccc(O)cc2C2c3ccccc3CC21` (stereo partly specified): the TGI with 786-0 renal, with HCT-116 colon, in the test with HOP-62 NSCLC, in the test with HT29 colon, in the test on MALME-3M melanoma and in the test with NCI-H522 lung was more than 100 µM each time. For the same molecule, the TGI was 91.8 µM in the test with OVCAR-3 ovarian; more than 100 µM with RPMI-8226 leukemia; more than 100 µM in the test with SN12C renal; more than 100 µM in the test on SW-620 colon; more than 100 µM in the test on TK-10 renal.
As to `CC(=O)OCCOCNC(=S)N/N=C(\C)c1ccco1`, the concentration for total growth inhibition (TGI) with 786-0 renal, in the test on CCRF-CEM leukemia, in the test with HCT-116 colon, in the test with HOP-62 NSCLC, with HT29 colon and in the test on MALME-3M melanoma was more than 100 µM each time. The TGI in the test with NCI-H522 lung, in the test on OVCAR-3 ovarian, in the test on SN12C renal, in the test with SW-620 colon and in the test on TK-10 renal was more than 100 µM throughout.
For the molecule `NS(=O)(=O)c1ccc(CNC(=S)NC(=O)Nc2ccc(Cl)c(Cl)c2)cc1`, the TGI in the test on 786-0 renal amounted to 34.3 µM; with CCRF-CEM leukemia it was 43.4 µM; in the test on HCT-116 colon, 32.6 µM; in the test on HOP-62 NSCLC it was 38.3 µM; in the test with HT29 colon, 61.1 µM; in the test with MALME-3M melanoma, 57.1 µM. Further, the TGI is 34.2 µM in the test with NCI-H522 lung; 41.6 µM in the test on RPMI-8226 leukemia; 33.3 µM in the test with SN12C renal; 44.7 µM in the test on SW-620 colon; more than 100 µM with TK-10 renal.
With `COCOc1cc(OC)ccc1C=O`, the TGI in the test with 786-0 renal is more than 100 µM; in the test on CCRF-CEM leukemia, more than 100 µM; in the test on HCT-116 colon, more than 100 µM; with HOP-62 NSCLC it was more than 100 µM; in the test on HT29 colon it was 66.8 µM; in the test on MALME-3M melanoma it was more than 100 µM. Besides, the TGI in the test on NCI-H522 lung is more than 100 µM; in the test on OVCAR-3 ovarian, 63.8 µM; with SN12C renal, more than 100 µM; in the test on SW-620 colon, more than 100 µM; in the test with TK-10 renal it was more than 100 µM.
As to `C[Si](C)(C)C#C[I+]c1ccccc1`, the TGI with 786-0 renal was more than 100 µM; in the test on CCRF-CEM leukemia, 75.8 µM; with HCT-116 colon, 56.6 µM; with HOP-62 NSCLC it was more than 100 µM; with HT29 colon, more than 100 µM; in the test on MALME-3M melanoma, more than 100 µM. The TGI in the test on NCI-H522 lung is 23.3 µM; in the test with OVCAR-3 ovarian, 86.2 µM; in the test with SN12C renal it was 64.7 µM; with TK-10 renal, more than 100 µM.
On to `CCOC(=O)Cc1csc(/N=C\c2c(O)c3ccccc3oc2=O)n1`, for which the TGI is more than 100 µM in the test on 786-0 renal; 85.9 µM in the test on CCRF-CEM leukemia; more than 100 µM in the test on HCT-116 colon; 75.9 µM in the test with HOP-62 NSCLC; more than 100 µM with HT29 colon; 24.3 µM with MALME-3M melanoma. Moreover, the TGI in the test with NCI-H522 lung was 42.4 µM; with OVCAR-3 ovarian it was 77.1 µM; in the test with RPMI-8226 leukemia, 51.6 µM; in the test with SW-620 colon it was more than 100 µM; in the test on TK-10 renal, more than 100 µM.
Consider `CC(C)(C)[C@@H]1NC(=O)CN1C(=O)OCc1ccccc1`, for which the TGI in the test on 786-0 renal, with CCRF-CEM leukemia, with HCT-116 colon, in the test with HOP-62 NSCLC, in the test on HT29 colon and in the test on MALME-3M melanoma was more than 100 µM each time. For the same molecule, the total growth inhibition concentration (TGI) in the test on NCI-H522 lung, in the test with RPMI-8226 leukemia, in the test with SN12C renal, in the test on SW-620 colon and in the test on TK-10 renal was more than 100 µM each time.
For the molecule `Cn1c2ccccc2n2c(=O)c(-c3ccc(O)cc3)nnc12`, the TGI with 786-0 renal, in the test on CCRF-CEM leukemia, in the test on HCT-116 colon, in the test on HOP-62 NSCLC, with HT29 colon and with MALME-3M melanoma was more than 100 µM each time. In addition, the TGI with NCI-H522 lung, with SN12C renal, in the test on SW-620 colon and with TK-10 renal was more than 100 µM each time.
Take `N#CC(C(=O)c1ccccc1F)c1nc2cc(C(F)(F)F)ccc2s1` (stereo unspecified): the TGI in the test with 786-0 renal is 60.5 µM; with HCT-116 colon it was 41.9 µM; with HOP-62 NSCLC it was 63.1 µM; with HT29 colon, 53.2 µM; in the test on MALME-3M melanoma, 69.3 µM; in the test on NCI-H522 lung it was 40.5 µM. Besides, the TGI in the test on OVCAR-3 ovarian was 52.7 µM; with RPMI-8226 leukemia it was 85 µM; with SN12C renal it was 67.2 µM; in the test on SW-620 colon it was 82.4 µM; with TK-10 renal, more than 100 µM.
Consider `C=C1C(=O)O[C@H]2C1C[C@@H](O)[C@@]1(C)OC1CC[C@@]1(C)O[C@H]21` (stereo partly specified), for which the TGI turned out to be 40.9 µM in the test on 786-0 renal; 23.1 µM with CCRF-CEM leukemia; 34.3 µM with HCT-116 colon; 98.9 µM with HT29 colon; 29.2 µM with MALME-3M melanoma; 20 µM in the test with NCI-H522 lung. Besides, the TGI worked out at 32.1 µM with RPMI-8226 leukemia, 42.4 µM with SN12C renal, 38.5 µM in the test with SW-620 colon and 35.3 µM in the test on TK-10 renal.

(Values after PubChem BioAssay (NCI).)
